For experiment [1], the target named is cGMP-specific 3',5'-cyclic phosphodiesterase (Homo sapiens) (UniProt O76074). Put plainly: Inhibition of PDE5A1 at 10 ug/mL.
Experiment [2] can be described thus: Inhibition of rabbit corpus cavernosum PDE6. On the set-up: species or system Oryctolagus cuniculus.
Another experiment has as its target Phosphodiesterase 4 (Homo sapiens, UniProt P27815+Q08499+Q07343+Q08493). Put plainly: Inhibition of human neutrophil PDE4. It is filed as protein assay.
Experiment [3] has as its target cGMP-specific 3',5'-cyclic phosphodiesterase (Bos taurus, UniProt Q28156). The experiment can be described thus: Inhibition of bovine platelet PDE5.

pIC50: −log10 of the molar value.

Take `COc1ccc(OC)c(/C=C/C(=O)c2c3c(c(OC)c4c2OCO4)CN(C)CC3)c1`: in experiment [1], the inhibition worked out at 45.5%.

In experiment [2], `COc1ccc(C2CNC(=O)C2)cc1OC1CCCC1` (configuration not stated) [ROLIPRAM] showed a pIC50 below 5.00. Take `COc1ccc(C(=O)/C=C/c2ccc(OC)c(OC)c2)c(O)c1`: in experiment [1], the inhibition stood at 23.8%. Consider `COc1ccc(OC)c(/C=C/C(=O)c2ccc(OC)cc2OC)c1`, for which the inhibition in experiment [1] worked out at 58.7%. This compound had an IC50 at Phosphodiesterase 4 of 4.9 µM. The pIC50 was 5.22 in experiment [3] and below 5.00 in experiment [2].

In the case of `COc1ccc(/C=C/C(=O)c2c3c(c(OC)c4c2OCO4)CN(C)CC3)c(OC)c1`, the inhibition in experiment [1] is 35.1%. The same measure, in the same setting: in the case of `COc1ccc(/C=C/C(=O)c2c(O)cc(OC)c(OC)c2OC)c(OC)c1` it was 35.7%.

In experiment [1], `COc1ccc(/C=C/C(=O)c2cc(OC)c(OC)cc2CCNC(C)=O)c(OC)c1` gave an inhibition of 45.5%. On to `COc1ccc(OC)c(/C=C/C(=O)c2ccc(Cl)cc2)c1`, for which, in experiment [1], the inhibition was 8.1%.

In turn, `COc1ccc(/C=C/C(=O)c2cc(OC)ccc2OC)cc1` had an inhibition in experiment [1] of 25.6%.

In experiment [1], `COc1ccc(OC)c(/C=C/C(=O)c2ccc(SC)cc2)c1` returned an inhibition of 26.6%.

In the case of `COc1ccc(OC)c(/C=C/C(=O)c2cc(OC)c(OC)cc2CCNC(C)=O)c1`, the inhibition in experiment [1] stood at 47.4%. Still for that read-out and setting: the result for `COC(=O)C[N+]1(C)CCc2c(c(OC)c3c(c2C(=O)/C=C/c2ccc(OC)cc2OC)OCO3)C1` (configuration not stated) reads 18.3%.

The compound `COc1ccc(/C=C/C(=O)c2c(OCc3ccccc3)cc(OC)c(OC)c2OC)cc1OC` returned an inhibition in experiment [1] of 77.7%. Also, the IC50 against Phosphodiesterase 4 stood at 2.3 µM. In addition, the pIC50 in experiment [3] was 5.23; in experiment [2], below 5.00. Consider `COc1ccc(OC)c(C(=O)/C=C/c2ccc(OC)c(OC)c2)c1`, for which the inhibition in experiment [1] was found to be 66.1%. This compound also came in with an IC50 at Phosphodiesterase 4 of 8.2 µM. Further, the results for the negative-log IC50 (pIC50) in experiment [3] and in experiment [2] were 5.15 and below 5.00, respectively. As to `COc1cccc(/C=C/C(=O)c2c3c(c(OC)c4c2OCO4)CN(C)CC3)c1`, the inhibition in experiment [1] came to 64.8%. Also, the IC50 against Phosphodiesterase 4 is above 10 µM. For the same compound, the pIC50 in experiment [3] is 5.21; in experiment [2] it was below 5.00. Take `COc1cc(CCNC(C)=O)c(C(=O)/C=C/c2cccc(OC)c2OC)cc1OC`: the inhibition in experiment [1] is 27.7%. Regarding `COc1ccc(OC)c(C(=O)/C=C/c2cc(OC)c(C)cc2OC)c1`, the inhibition in experiment [1] is 24.9%. Same read-out and setting: in the case of `COC(=O)C[N+]1(C)CCc2c(cc3c(c2C(=O)/C=C/c2cc(OC)ccc2OC)OCO3)C1` (configuration not stated) it was 7.2%. As for `CCCOc1ccccc1-c1nc2[nH]nnc2c(=O)[nH]1` [ZAPRINAST], in experiment [2], the pIC50 was 6.40. As to `COc1ccc(/C=C/C(=O)c2c3c(c(OC)c4c2OCO4)CN(C)CC3)c(OC)c1OC`, the inhibition in experiment [1] came to 37.1%.

Consider `COc1ccc(C(=O)/C=C/c2ccccc2OC)c(OC)c1`, for which the inhibition in experiment [1] amounted to 43.1%. For the compound `CCCc1nn(C)c2c(=O)[nH]c(-c3cc(S(=O)(=O)N4CCN(C)CC4)ccc3OCC)nc12`, the pIC50 in experiment [2] was 7.00. Turning to `COc1ccccc1/C=C/C(=O)c1cc(OC)c(OC)cc1CCNC(C)=O`, in experiment [1], the inhibition is 19.9%. The same measure, in the same setting: in the case of `COc1cccc(/C=C/C(=O)c2c3c(c(OC)c4c2OCO4)CN(C)CC3)c1OC` it was 43.9%; in that of `COc1c2c(c(C(=O)/C=C/c3ccc(Cl)cc3Cl)c3c1OCO3)CCN(C)C2`, 8.17%. Take `COc1ccc(C(=O)/C=C/c2cc(OC)c(OC)cc2OC)c(OC)c1`: in experiment [1], the inhibition was found to be 65.9%. Further, the IC50 against Phosphodiesterase 4 is above 10 µM. Besides, the pIC50 is 5.74 in experiment [3] and below 5.00 in experiment [2]. `COc1ccc(/C=C/C(=O)c2c3c(c(OC)c4c2OCO4)CN(C)CC3)cc1`: in experiment [1], the inhibition is 31.8%.

Take `COc1ccc(C(=O)/C=C/c2cccc(OC)c2OC)c(OC)c1`: the inhibition in experiment [1] was 46.7%. Take `COc1ccc(OC)c(/C=C/C(=O)c2cc(OC)c(C)cc2OC)c1`: in experiment [1], the inhibition was found to be 20.2%. Same read-out and setting: in the case of `COc1ccc(OC)c(/C=C/C(=O)c2ccc(OC)c(OC)c2)c1` it was 47.3%. On the same count and under the same terms, the result for `COc1ccc(C(=O)/C=C/c2cc(Cl)ccc2Cl)c(OC)c1` reads 39.5%; that for `COc1ccc(/C=C/C(=O)c2cc(Cl)ccc2OC)cc1OC`, 3.5%.

One may read the inhibition as the change of the read-out against control, counted positive when it falls. The pIC50 is the IC50 on a negative log10 scale, so that one unit is a factor of ten. Higher therefore signals a small IC50. As usually defined, the IC50 is the concentration that inhibits the measured activity by half. A low value points to greater potency.

(Values after ChEMBL document CHEMBL2029321, “Identification of chalcones as potent and selective PDE5A1 inhibitors” (Bioorg Med Chem Lett, 2012).)
